# Results reported in PubChem BioAssay AID2060500 (Molecular Pharmacology Branch, DTP, NCI, 2025).
# pIC50: −log10 of the molar value.
# Tested on: 596521-263-R-J1-PDC complex spheroids, viability % of control
# Assay: Anticancer human tumor 596521-263-R-J1-PDC patient-derived soft tissue sarcoma cell line growth inhibition [GQUAD]
# Settings: for pIC50: curve of first compound; for viability, T/C: stronger effect = lower value
# Outline: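 Tumor cells were grown as complex spheroids with HUVEC endothelial cells and mesenchymal stem cells as stroma. G-quadruplex stabilizers were combined with targeted agents over half-log dilutions from near the clinical Cmax, or from 10 microM.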
# [1] = second compound 0.0316 µM, first compound 0.0316 µM
# [2] = second compound 0.0316 µM, first compound 0.1 µM
# [3] = second compound 0.0316 µM, first compound 0.316 µM
# [4] = second compound 0.0316 µM, first compound 1 µM
# [5] = second compound 0.0316 µM, first compound 3.16 µM
# [6] = second compound 0.0316 µM, first compound 10 µM
# [7] = second compound 0.1 µM, first compound 0.0316 µM
# [8] = second compound 0.1 µM, first compound 0.1 µM
# [9] = second compound 0.1 µM, first compound 0.316 µM
# [10] = second compound 0.1 µM, first compound 1 µM
# [11] = second compound 0.1 µM, first compound 3.16 µM
# [12] = second compound 0.1 µM, first compound 10 µM
# [13] = second compound 0.316 µM, first compound 0.0316 µM
# [14] = second compound 0.316 µM, first compound 0.1 µM
# [15] = second compound 0.316 µM, first compound 0.316 µM
# [16] = second compound 0.316 µM, first compound 1 µM
# [17] = second compound 0.316 µM, first compound 3.16 µM
# [18] = second compound 0.316 µM, first compound 10 µM
# [19] = second compound 1 µM, first compound 0.0316 µM
# [20] = second compound 1 µM, first compound 0.1 µM
# [21] = second compound 1 µM, first compound 0.316 µM
# [22] = second compound 1 µM, first compound 1 µM
# [23] = second compound 1 µM, first compound 3.16 µM
# [24] = second compound 1 µM, first compound 10 µM
# [25] = second compound 3.16 µM, first compound 0.0316 µM
# [26] = second compound 3.16 µM, first compound 0.1 µM
# [27] = second compound 3.16 µM, first compound 0.316 µM
# [28] = second compound 3.16 µM, first compound 1 µM
# [29] = second compound 3.16 µM, first compound 3.16 µM
# [30] = second compound 3.16 µM, first compound 10 µM
# [31] = second compound 10 µM, first compound 0.0316 µM
# [32] = second compound 10 µM, first compound 0.1 µM
# [33] = second compound 10 µM, first compound 0.316 µM
# [34] = second compound 10 µM, first compound 1 µM
# [35] = second compound 10 µM, first compound 3.16 µM
# [36] = second compound 10 µM, first compound 10 µM
# 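Also: spheroids exposed to drugs for 7 days before viability reading.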
# 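For viability, T/C in this document: 100% = DMSO vehicle control viability.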
smiles,measurement,setting,value
C=CCn1c(=O)c2cnc(Nc3ccc(N4CCN(C)CC4)cc3)nc2n1-c1cccc(C(C)(C)O)n1 + CN(C)c1ccc(Nc2c3ccc(NC(=O)CCN4CCCC4)cc3nc3cc(NC(=O)CCN4CCCC4)ccc23)cc1,pIC50,second compound 0.0316 µM,6.19
same,pIC50,second compound 0.1 µM,6.26
same,pIC50,second compound 0.316 µM,6.32
same,pIC50,second compound 1 µM,6.12
same,pIC50,second compound 3.16 µM,6.12
same,pIC50,second compound 10 µM,6.51
same,"viability, T/C",[1],90.4%
same,"viability, T/C",[2],81.2%
same,"viability, T/C",[3],53.5%
same,"viability, T/C",[4],44.9%
same,"viability, T/C",[5],42%
same,"viability, T/C",[6],27.7%
same,"viability, T/C",[7],105%
same,"viability, T/C",[8],82.5%
same,"viability, T/C",[9],53.9%
same,"viability, T/C",[10],44.1%
same,"viability, T/C",[11],45.3%
same,"viability, T/C",[12],32.9%
same,"viability, T/C",[13],90.5%
same,"viability, T/C",[14],90.4%
same,"viability, T/C",[15],54.5%
same,"viability, T/C",[16],47.3%
same,"viability, T/C",[17],46.1%
same,"viability, T/C",[18],32.1%
same,"viability, T/C",[19],86.4%
same,"viability, T/C",[20],79.6%
same,"viability, T/C",[21],57.1%
same,"viability, T/C",[22],47%
same,"viability, T/C",[23],49.4%
same,"viability, T/C",[24],34.7%
same,"viability, T/C",[25],100%
same,"viability, T/C",[26],84.8%
same,"viability, T/C",[27],63.9%
same,"viability, T/C",[28],44.4%
same,"viability, T/C",[29],38.2%
same,"viability, T/C",[30],31.2%
same,"viability, T/C",[31],66.9%
same,"viability, T/C",[32],54.9%
same,"viability, T/C",[33],47.3%
same,"viability, T/C",[34],44.7%
same,"viability, T/C",[35],34.2%
same,"viability, T/C",[36],20.7%
COc1ncnc(C2CC2)c1-c1ncc2cnn(Cc3ccc(-c4nc(C(F)(F)F)cn4C(C)C)cc3)c2n1 + CN(C)c1ccc(Nc2c3ccc(NC(=O)CCN4CCCC4)cc3nc3cc(NC(=O)CCN4CCCC4)ccc23)cc1,pIC50,second compound 0.0316 µM,< 5.00
same,pIC50,second compound 0.1 µM,< 5.00
same,pIC50,second compound 0.316 µM,< 5.00
same,pIC50,second compound 1 µM,< 5.00
same,pIC50,second compound 3.16 µM,< 5.00
same,pIC50,second compound 10 µM,5.42
same,"viability, T/C",[1],94.8%
same,"viability, T/C",[2],100%
same,"viability, T/C",[3],92.2%
same,"viability, T/C",[4],104%
same,"viability, T/C",[5],90.9%
same,"viability, T/C",[6],97.2%
same,"viability, T/C",[7],103%
same,"viability, T/C",[8],94.7%
same,"viability, T/C",[9],98.4%
same,"viability, T/C",[10],89.8%
same,"viability, T/C",[11],98.6%
same,"viability, T/C",[12],93.5%
same,"viability, T/C",[13],103%
same,"viability, T/C",[14],99.2%
same,"viability, T/C",[15],101%
same,"viability, T/C",[16],106%
same,"viability, T/C",[17],104%
same,"viability, T/C",[18],105%
same,"viability, T/C",[19],95.4%
same,"viability, T/C",[20],92.5%
same,"viability, T/C",[21],93.5%
same,"viability, T/C",[22],81.1%
same,"viability, T/C",[23],108%
same,"viability, T/C",[24],88.3%
same,"viability, T/C",[25],89.9%
same,"viability, T/C",[26],106%
same,"viability, T/C",[27],87.9%
same,"viability, T/C",[28],108%
same,"viability, T/C",[29],86.6%
same,"viability, T/C",[30],72.6%
same,"viability, T/C",[31],63%
same,"viability, T/C",[32],57.7%
same,"viability, T/C",[33],63.8%
same,"viability, T/C",[34],57%
same,"viability, T/C",[35],52%
same,"viability, T/C",[36],38.4%
